In brackets after ≈: the same amount, converted by molar mass.
What was measured:
Type in all cases: functional
Enterococcus faecalis = assay: Minimum inhibitory concentration of the compound againstEnterococcus faecalis ATCC 51299 with an erm(B)-encoded ribosomal methylase was determined
Streptococcus pneumoniae [1] = assay: Minimum inhibitory concentration of the compound against erythromycin-susceptible Streptococcus pneumoniae was determined
Streptococcus pneumoniae [2] = assay: Minimum inhibitory concentration of the compound against 3 […] Streptococcus pneumoniae OC4421 with an mef(A) efflux-mediated resistance was determined
Staphylococcus aureus = assay: Minimum inhibitory concentration of the compound against erythromycin-susceptible Staphylococcus aureus Smith OC4172 was determined
Streptococcus pneumoniae [3] = assay: Minimum inhibitory concentration of the compound against 3 […] Streptococcus pneumoniae OC4051 with an erm(B)-ribosomal methylase-mediated resistance was determined
Haemophilus influenzae = assay: Minimum inhibitory concentration of the compound against Haemophilus influenzae OC4882 was determined
Mus musculus [4] = assay: Effective dose required to inhibit Staphylococcus aureus in mouse was determined after peroral administration of the compound; conditions: po
Mus musculus [5] = assay: Effective dose required to inhibit Staphylococcus aureus in mouse was determined after sub cutaneous administration (6.6-70)

Structure (SMILES) | MIC (Enterococcus faecalis) [µg/mL] | MIC (Streptococcus pneumoniae [1]) [µg/mL] | MIC (Streptococcus pneumoniae [2]) [µg/mL] | MIC (Staphylococcus aureus) [µg/mL] | MIC (Streptococcus pneumoniae [3]) [µg/mL] | MIC (Haemophilus influenzae) [µg/mL] | ED50 (Mus musculus [4]) [mg/kg] | ED50 (Mus musculus [5]) [mg/kg]
CC[C@H]1OC(=O)[C@@](C)(F)C(=O)[C@H](C)[C@@H](O[C@@H]2O[C@H](C)C[C@H](N(C)C)[C@H]2O)[C@](C)(OC(=O)NC/C=C/c2cn(-c3ncccn3)cn2)C[C@@H](C)C(=O)[C@H](C)[C@H]2NC(=O)O[C@@]21C | 8 (≈ 9.48 µM) | 0.03 (≈ 0.0355 µM) | 0.25 (≈ 0.296 µM) | 0.12 (≈ 0.142 µM) | 0.06 (≈ 0.0711 µM) | 8 (≈ 9.48 µM) |  | 
CC[C@H]1OC(=O)[C@H](C)C(=O)[C@H](C)[C@@H](O[C@@H]2O[C@H](C)C[C@H](N(C)C)[C@H]2O)[C@](C)(OC)C[C@@H](C)C(=O)[C@H](C)[C@H]2N(CCCCn3cnc(-c4cccnc4)c3)C(=O)O[C@]12C [TELITHROMYCIN] | 16 (≈ 19.7 µM) | ≤ 0.015 | 0.12 (≈ 0.148 µM) | 0.12 (≈ 0.148 µM) | 0.06 (≈ 0.0739 µM) | 2 (≈ 2.46 µM) |  | 
CC[C@H]1OC(=O)[C@@](C)(F)C(=O)[C@H](C)[C@@H](O[C@@H]2O[C@H](C)C[C@H](N(C)C)[C@H]2O)[C@](C)(OC(=O)NC/C=C/c2ccc(-c3ncccn3)cc2)C[C@@H](C)C(=O)[C@H](C)[C@H]2NC(=O)O[C@@]21C | 8 (≈ 9.37 µM) | 0.06 (≈ 0.0703 µM) | 0.12 (≈ 0.141 µM) | 0.5 (≈ 0.585 µM) | 0.12 (≈ 0.141 µM) | 8 (≈ 9.37 µM) | > 40 | 12
CC[C@H]1OC(=O)[C@@](C)(F)C(=O)[C@H](C)[C@@H](O[C@@H]2O[C@H](C)C[C@H](N(C)C)[C@H]2O)[C@](C)(OC(=O)NCCOCc2ccc(-c3ncccn3)cc2)C[C@@H](C)C(=O)[C@H](C)[C@H]2NC(=O)O[C@@]21C | > 16 | 0.06 (≈ 0.0688 µM) | 0.12 (≈ 0.138 µM) | 0.25 (≈ 0.287 µM) | 0.12 (≈ 0.138 µM) | 8 (≈ 9.17 µM) |  | 
CC[C@H]1OC(=O)[C@@](C)(F)C(=O)[C@H](C)[C@@H](O[C@@H]2O[C@H](C)C[C@H](N(C)C)[C@H]2O)[C@](C)(OC(=O)NC/C=C/c2ccc(-c3cnccn3)cc2)C[C@@H](C)C(=O)[C@H](C)[C@H]2NC(=O)O[C@@]21C | 4 (≈ 4.68 µM) | 0.03 (≈ 0.0351 µM) | 0.06 (≈ 0.0703 µM) | 0.25 (≈ 0.293 µM) | 0.06 (≈ 0.0703 µM) | 4 (≈ 4.68 µM) |  | 
CC[C@H]1OC(=O)[C@@](C)(F)C(=O)[C@H](C)[C@@H](O[C@@H]2O[C@H](C)C[C@H](N(C)C)[C@H]2O)[C@](C)(OC(=O)NC/C=C/c2cn(-c3cnccn3)cn2)C[C@@H](C)C(=O)[C@H](C)[C@H]2NC(=O)O[C@@]21C | 16 (≈ 19 µM) | 0.03 (≈ 0.0355 µM) | 0.25 (≈ 0.296 µM) | 0.25 (≈ 0.296 µM) | 0.06 (≈ 0.0711 µM) | 8 (≈ 9.48 µM) |  | 
CC[C@H]1OC(=O)[C@@](C)(F)C(=O)[C@H](C)[C@@H](O[C@@H]2O[C@H](C)C[C@H](N(C)C)[C@H]2O)[C@](C)(OC(=O)NC/C=C/c2ccc(-c3cccnn3)cc2)C[C@@H](C)/C(=N\O)[C@H](C)[C@H]2NC(=O)O[C@@]21C | > 4 | 0.03 (≈ 0.0345 µM) | 0.25 (≈ 0.288 µM) | 0.5 (≈ 0.575 µM) | 0.06 (≈ 0.069 µM) | 2 (≈ 2.3 µM) |  | 
CC[C@H]1OC(=O)[C@H](C)[C@@H](O[C@H]2C[C@@](C)(OC)[C@@H](O)[C@H](C)O2)[C@H](C)[C@@H](O[C@@H]2O[C@H](C)C[C@H](N(C)C)[C@H]2O)[C@](C)(O)C[C@@H](C)C(=O)[C@H](C)[C@@H](O)[C@]1(C)O [ERYTHROMYCIN] | > 16 | 0.06 (≈ 0.0818 µM) | 4 (≈ 5.45 µM) | 0.5 (≈ 0.681 µM) | > 16 | 8 (≈ 10.9 µM) |  | 
CC[C@H]1OC(=O)[C@@](C)(F)C(=O)[C@H](C)[C@@H](O[C@@H]2O[C@H](C)C[C@H](N(C)C)[C@H]2O)[C@](C)(OC(=O)NCc2ccc(-c3ccncn3)cc2)C[C@@H](C)C(=O)[C@H](C)[C@H]2NC(=O)O[C@@]21C | 16 (≈ 19.3 µM) | 0.03 (≈ 0.0362 µM) | 0.12 (≈ 0.145 µM) | 0.12 (≈ 0.145 µM) | 0.06 (≈ 0.0725 µM) | 4 (≈ 4.83 µM) |  | 
CC[C@H]1OC(=O)[C@@](C)(F)C(=O)[C@H](C)[C@@H](O[C@@H]2O[C@H](C)C[C@H](N(C)C)[C@H]2O)[C@](C)(OC(=O)NC/C=C/c2ccc(-c3ccccn3)cc2)C[C@@H](C)C(=O)[C@H](C)[C@H]2NC(=O)O[C@@]21C | 4 (≈ 4.69 µM) | 0.06 (≈ 0.0703 µM) | 0.12 (≈ 0.141 µM) | 0.25 (≈ 0.293 µM) | 0.06 (≈ 0.0703 µM) | 4 (≈ 4.69 µM) |  | 
CC[C@H]1OC(=O)[C@@](C)(F)C(=O)[C@H](C)[C@@H](O[C@@H]2O[C@H](C)C[C@H](N(C)C)[C@H]2O)[C@](C)(OC(N)=O)C[C@@H](C)/C(=N\O)[C@H](C)[C@H]2NC(=O)O[C@@]21C | > 16 | 0.12 (≈ 0.178 µM) | 2 (≈ 2.96 µM) | 1 (≈ 1.48 µM) | 2 (≈ 2.96 µM) | 4 (≈ 5.93 µM) |  | 
CC[C@H]1OC(=O)[C@@](C)(F)C(=O)[C@H](C)[C@@H](O[C@@H]2O[C@H](C)C[C@H](N(C)C)[C@H]2O)[C@](C)(OC(=O)NC/C=C/c2ccc(-c3ccncn3)cc2)C[C@@H](C)C(=O)[C@H](C)[C@H]2NC(=O)O[C@@]21C | > 16 | 0.03 (≈ 0.0351 µM) | 0.12 (≈ 0.141 µM) | 0.25 (≈ 0.293 µM) | 0.06 (≈ 0.0703 µM) | 4 (≈ 4.68 µM) |  | 
CC[C@H]1OC(=O)[C@@](C)(F)C(=O)[C@H](C)[C@@H](O[C@@H]2O[C@H](C)C[C@H](N(C)C)[C@H]2O)[C@](C)(OC(=O)NCc2cn(-c3ncccn3)cn2)C[C@@H](C)C(=O)[C@H](C)[C@H]2NC(=O)O[C@@]21C | > 16 | 0.03 (≈ 0.0367 µM) | 0.5 (≈ 0.611 µM) | 0.25 (≈ 0.306 µM) | 0.12 (≈ 0.147 µM) | 4 (≈ 4.89 µM) |  | 
CC[C@H]1OC(=O)[C@@](C)(F)C(=O)[C@H](C)[C@@H](O[C@@H]2O[C@H](C)C[C@H](N(C)C)[C@H]2O)[C@](C)(OC(=O)NC/C=C/c2ccc(-n3cnnc3)cc2)C[C@@H](C)C(=O)[C@H](C)[C@H]2NC(=O)O[C@@]21C | > 16 | 0.06 (≈ 0.0712 µM) | 0.5 (≈ 0.593 µM) | 0.5 (≈ 0.593 µM) | 0.12 (≈ 0.142 µM) | 8 (≈ 9.49 µM) |  | 
CC[C@H]1OC(=O)[C@@](C)(F)C(=O)[C@H](C)[C@@H](O[C@@H]2O[C@H](C)C[C@H](N(C)C)[C@H]2O)[C@](C)(OC(=O)NC/C=C/c2ccc(-n3cccn3)cc2)C[C@@H](C)C(=O)[C@H](C)[C@H]2NC(=O)O[C@@]21C | 8 (≈ 9.5 µM) | 0.03 (≈ 0.0356 µM) | 0.5 (≈ 0.594 µM) | 0.25 (≈ 0.297 µM) | 0.12 (≈ 0.143 µM) | 8 (≈ 9.5 µM) |  | 
CC[C@H]1OC(=O)[C@@](C)(F)C(=O)[C@H](C)[C@@H](O[C@@H]2O[C@H](C)C[C@H](N(C)C)[C@H]2O)[C@](C)(OC(=O)NCCOCc2ccc(-c3ncccn3)cc2)C[C@@H](C)/C(=N\O)[C@H](C)[C@H]2NC(=O)O[C@@]21C | 16 (≈ 18 µM) | 0.06 (≈ 0.0676 µM) | 0.25 (≈ 0.282 µM) | 0.5 (≈ 0.564 µM) | 0.06 (≈ 0.0676 µM) | 8 (≈ 9.02 µM) |  | 
CC[C@H]1OC(=O)[C@@](C)(F)C(=O)[C@H](C)[C@@H](O[C@@H]2O[C@H](C)C[C@H](N(C)C)[C@H]2O)[C@](C)(OC(=O)NC/C=C/c2ccc3ncccc3c2)C[C@@H](C)/C(=N\O)[C@H](C)[C@H]2NC(=O)O[C@@]21C | 2 (≈ 2.38 µM) | 0.03 (≈ 0.0356 µM) | 0.12 (≈ 0.143 µM) | 0.25 (≈ 0.297 µM) | 0.03 (≈ 0.0356 µM) | 2 (≈ 2.38 µM) |  | 
CC[C@H]1OC(=O)[C@@](C)(F)C(=O)[C@H](C)[C@@H](O[C@@H]2O[C@H](C)C[C@H](N(C)C)[C@H]2O)[C@](C)(OC(=O)NC/C=C/c2ccc(-c3ncccn3)o2)C[C@@H](C)C(=O)[C@H](C)[C@H]2NC(=O)O[C@@]21C | > 16 | 0.06 (≈ 0.0711 µM) | 0.5 (≈ 0.592 µM) | 0.5 (≈ 0.592 µM) | 0.12 (≈ 0.142 µM) | 16 (≈ 19 µM) |  | 
CC[C@H]1OC(=O)[C@@](C)(F)C(=O)[C@H](C)[C@@H](O[C@@H]2O[C@H](C)C[C@H](N(C)C)[C@H]2O)[C@](C)(OC(=O)NC/C=C/c2cccnc2)C[C@@H](C)/C(=N\O)[C@H](C)[C@H]2NC(=O)O[C@@]21C | > 16 | 0.06 (≈ 0.0758 µM) | 0.5 (≈ 0.631 µM) | 0.5 (≈ 0.631 µM) | 0.12 (≈ 0.152 µM) | 2 (≈ 2.53 µM) |  | 
CC[C@H]1OC(=O)[C@@](C)(F)C(=O)[C@H](C)[C@@H](O[C@@H]2O[C@H](C)C[C@H](N(C)C)[C@H]2O)[C@](C)(OC(=O)NC/C=C/c2ccc3ncccc3c2)C[C@@H](C)C(=O)[C@H](C)[C@H]2NC(=O)O[C@@]21C | 4 (≈ 4.84 µM) | 0.06 (≈ 0.0726 µM) | 0.06 (≈ 0.0726 µM) | 0.25 (≈ 0.302 µM) | 0.06 (≈ 0.0726 µM) | 4 (≈ 4.84 µM) |  | 
CC[C@H]1OC(=O)[C@@](C)(F)C(=O)[C@H](C)[C@@H](O[C@@H]2O[C@H](C)C[C@H](N(C)C)[C@H]2O)[C@](C)(OC(N)=O)C[C@@H](C)C(=O)[C@H](C)[C@H]2NC(=O)O[C@@]21C | > 16 | 0.12 (≈ 0.182 µM) | 2 (≈ 3.03 µM) | 1 (≈ 1.52 µM) | > 16 | 8 (≈ 12.1 µM) |  | 
CC[C@H]1OC(=O)[C@@](C)(F)C(=O)[C@H](C)[C@@H](O[C@@H]2O[C@H](C)C[C@H](N(C)C)[C@H]2O)[C@](C)(OC(=O)NC/C=C/c2cncc(-c3ccccn3)c2)C[C@@H](C)C(=O)[C@H](C)[C@H]2NC(=O)O[C@@]21C | 4 (≈ 4.68 µM) | 0.03 (≈ 0.0351 µM) | 0.12 (≈ 0.141 µM) | 0.25 (≈ 0.293 µM) | 0.06 (≈ 0.0703 µM) | 8 (≈ 9.37 µM) |  | 
CC[C@H]1OC(=O)[C@@](C)(F)C(=O)[C@H](C)[C@@H](O[C@@H]2O[C@H](C)C[C@H](N(C)C)[C@H]2O)[C@](C)(OC(=O)NC/C=C/c2ccccc2)C[C@@H](C)/C(=N\O)[C@H](C)[C@H]2NC(=O)O[C@@]21C | > 16 | 0.03 (≈ 0.0379 µM) | 0.5 (≈ 0.632 µM) | 0.25 (≈ 0.316 µM) | 0.12 (≈ 0.152 µM) | 2 (≈ 2.53 µM) |  | 
CC[C@H]1OC(=O)[C@@](C)(F)C(=O)[C@H](C)[C@@H](O[C@@H]2O[C@H](C)C[C@H](N(C)C)[C@H]2O)[C@](C)(OC(=O)NC/C=C/c2ccc(-c3cccnn3)cc2)C[C@@H](C)C(=O)[C@H](C)[C@H]2NC(=O)O[C@@]21C | 4 (≈ 4.68 µM) | 0.03 (≈ 0.0351 µM) | 0.12 (≈ 0.141 µM) | 0.12 (≈ 0.141 µM) | 0.06 (≈ 0.0703 µM) | 4 (≈ 4.68 µM) |  | 
